The text below walks through data of patent publication US20160279166A1, “TREATING AGENT AND TREATING METHOD FOR THE EXAMINATION OR OPERATION OF THE LARGE INTESTINE” (KYOWA CHEMICAL INDUSTRY CO., LTD., priority 2013, published 2016).

One assay deals with large intestine. Description: CT examination of the large intestine: evaluation of remaining feces, remaining water and overall evaluation after pretreatment. Format: in vivo, human. The settings on record: conclusion from CT overall evaluation. As to the method: The large intestine is divided into 6 parts in order to evaluate remaining feces and remaining water in each part in five stages from an image of the large intestine at a supine position (SU) and a lateral recumbent position (PR) obtained from CT examination. Further, overall evaluation was carried out from the obtained evaluation results.
The large intestine is divided into the following six parts.
C: appendix A: ascending colon T: transverse colon D: descending colon S: sigmoid colon R: rectum
The remaining feces were evaluated in five stages according to the existence of movement and a shape change.
0: difficult to evaluate 1: sticks to a mucous membrane 2: no movement and no shape change 3: moved and changed in shape 4: almost no remaining feces
The remaining water was evaluated in the following five stages according to its proportion to the circumference.
0: 4/4 of the circumference is under water (complete submersion). 1: 3/4 of the circumference is under water 2: 2/4 of the circumference is under water 3: 1/4 of the circumference is under water (submersion of semilunar pleat) 4: almost no submersion
The overall evaluation was made in the following five stages.
0: not useful 1: it cannot be said whether it is useful or not 2: rather useful 3: useful 4: very useful
3 g of MgO for each examination was divided in two portions to be administered as the pretreatment of the examination. […]

Assay [1] deals with rats. Description: Defecation state (soft stool) of rats 9 hours after administration. The format is in vivo, rat. The settings on record: oral, after 9 hours, magnesium oxide 700 mg/kg, fiber powders 4500 mg/kg, fiber liquid 4500 mg/kg as administered. As to the method: (§1) Magnesium oxide particles and water-soluble dietary fibers were administered to rats for animal testing to check the defecation states after 9 hours. Laparotomy was made on the rats after 9 hours to measure the amount of remaining feces, the amount of dry feces and the content of water in the intestinal tract.
(§2) A preparation containing 1.4 g of magnesium oxide particles and 9 g of water-soluble dietary fiber powders was used to administer 700 mg/kg of the magnesium oxide particles and 4,500 mg/kg of the water-soluble dietary fiber powders to rats. The magnesium oxide in use was magnesium oxide particles having an average secondary particle diameter specified in the present invention. The water-soluble dietary fibers in use were reduced indigestible dextrin specified in the present invention.
The total suspension liquid doses to test groups were fixed. […] The defecation state was checked after 9 hours, and the amount of remaining feces, the amount of dry feces and the content of water in the large intestine of each rat were measured to evaluate the effects on the properties of feces of the magnesium oxide particles and the water-soluble dietary fibers.

Assay [2] has as its system rats. Description: Laparotomy of rats after 9 hours: remaining feces, dry feces and water content in the large intestinal tract. The format is in vivo, rat. As to the method:
as §1, §2
The total suspension liquid doses to test groups were fixed. When the magnesium oxide particles and a mixture of the magnesium oxide particles and the water-soluble dietary fiber powders were administered, 5 ml/kg of them was administered, and when they were not administered, 0.05% CMC-NA was administered. When the water-soluble dietary fiber liquid was administered, 10 ml/kg of it was administered and when the water-soluble dietary fiber liquid was not administered, 10 ml/kg of water was administered. The defecation state was checked after 9 hours, and the amount of remaining feces, the amount of dry feces and the content of water in the large intestine of each rat were measured to evaluate the effects on the properties of feces of the magnesium oxide particles and the water-soluble dietary fibers.

The test system of assay [3] is rats. Description: Defecation state (diarrhea) of rats after 9 hours with varied amount of ingested water. Format: in vivo, rat. The settings on record: oral, magnesium oxide 700 mg/kg. As to the method:
Magnesium oxide particles were administered to rats for animal testing to check the defecation states after 9 hours. At this point, the amount of water to be taken was increased and decreased to evaluate the effect on laxative action of the amount of water to be taken.
A preparation containing magnesium oxide as an effective component and crystalline cellulose, croscarmellose and calcium stearate as additives was used. […] The magnesium oxide in use is magnesium oxide particles having an average secondary particle diameter specified in the present invention.
The defecation state of each test group was checked after 9 hours so as to calculate the water-like feces excretion rate and evaluate the effect on the properties of feces of the amount of ingested water when the magnesium oxide particles were administered.

The mark [4] stands for this setting: large intestinal tract after 9 hours, magnesium oxide 700 mg/kg, fiber powders 4500 mg/kg, fiber liquid 4500 mg/kg as administered.

SMILES strings stand for the structures.

With `[O]=[Mg]` [Magnesium oxide particles, magnesium oxide], the “effectiveness as a treating agent for the examination or operation of the large intestine (in words)” value in the assay on large intestine was “extremely effective”. Besides, the “Proportion having soft stool (number of rats having soft stool/number of test rats)” value in the assay on rats [1] is listed as 3/5. Moreover, in the assay with rats [2] (after 9 hours), the “amount of dry feces (in words)” value was “reduced” and the “content of water (in words)” value was “increased”. In the assay with rats [2] (setting [4]), the “Amount of dry feces” value is 12%, the “Amount of remaining feces” value was 3.69 g and the Content of water was 88%. Moreover, the “Proportion causing diarrhea (number of rats suffering from diarrhea/number of test rats)” value in the assay on rats [3] (water 1 mL/kg) is on record as 3/5. In the assay with rats [3] (water 10 mL/kg), the “Proportion causing diarrhea (number of rats suffering from diarrhea/number of test rats)” value was 4/5. Moreover, the “Proportion causing diarrhea (number of rats suffering from diarrhea/number of test rats)” value with rats [3] (water 35 mL/kg) is given as 5/5.
